Measurements: PubChem BioAssay AID2060907 (Molecular Pharmacology Branch, DTP, NCI, 2025)

System: 388556-164-R-J1-PDC complex spheroid viability
Assay: Anticancer human tumor 388556-164-R-J1-PDC patient-derived colon adenocarcinoma cell line growth inhibition [RAS]
Details: for IC50: curve of first compound; for viability, T/C: stronger effect = lower value
Text: RAS pathway inhibitors in Combinations in Complex Spheroids
A high-throughput screen of multi-cell type tumor spheroids was designed to identify active combinations of RAS pathway inhibitors and targeted small molecules. Complex spheroids include a stromal component modeled by human endothelial cells (HUVEC) and fibroblasts modeled by human mesenchymal stem cells (MSCs). The concentration ranges selected for each drug and investigational agent were based upon clinically achievable concentrations if the clinical Cmax of the agent was known.
Compounds. The drugs and investigational agents: abemaciclib (NSC768073), cobimetinib (NSC768068), divarasib (GDC6063, NSC841802), docetaxel (NSC628503), GDC-1971 (RLY-1971, NSC841576), gemcitabine (NSC613327), inavolisib (NSC800729), ipatasertib (NSC767898), KB-0742 (NSC834161), MRTX-1133 (NSC836407), osimertinib (NSC779217), RMC-4630 (NSC839698), RMC-6236 (NSC851965), RMC-6291 (NSC852671), Ro-3306 (NSC812927), sapanisertib (NSC764658), SN-38 (NSC673596), staurosporine (NSC755774), SY5609 (NSC837396), and tovorafenib (DAY101, NSC766906), were obtained from the National Cancer Institute (NCI) Developmental Therapeutics Program Chemical Repository. The FDA-approved anticancer drug set is available from the NCI Developmental Therapeutics Program. […] The stock solutions were prepared in dimethyl sulfoxide (DMSO, Sigma-Aldrich, St. Louis, MO, cat. D2650) at 800-fold the tested concentration and stored at -70 degrees C prior to their use. All drugs and investigational agents were tested over a range starting from a high concentration at or near the clinical Cmax and decreasing in half-log increments. If the clinical Cmax for an agent had not been determined, the highest concentration tested was 10 microM.
Cell Culture. All cells were maintained in an incubator at 37 degrees C and 5% CO2 with 95% humidity. The PDC lines were cultured according to standard operating procedures established by the NCI PDMR. All PDCs were thawed and cultured in Matrigel-coated flasks prepared with a working solution of 1X Ham's F-12 nutrient mix, without supplementation (Invitrogen, Waltham, MA, cat. 11765054), 100 U/mL penicillin-streptomycin (Invitrogen, cat. 15140122), and 2.5% Matrigel (Corning Inc., Corning, NY, cat. 354248) for the first three passages. The 362531-283-R-J2-PDC and 782815-120-R-J1-PDC lines were cultured in 6C/Colon 1B media, which includes advanced DMEM/F-12 (Thermo Fisher Scientific, cat. 12634028), 10 mM HEPES (Thermo Fisher Scientific, cat. 15630080), 1X GlutaMAX supplement (Thermo Fisher Scientific, cat. 35050061), 0.1 mg/mL primocin (InvivoGen, San Diego, CA, cat. ant-pm-2), 10% defined fetal bovine serum, heat inactivated (HyClone Laboratories Inc., Logan, UT, cat. SH30070.03HI), 50% L-WRN conditioned media (ATCC, cat. CRL-3276), 1.25 mM N-Acetyl-L-cysteine (Sigma-Aldrich, cat. A9165), 10 mM nicotinamide (Sigma-Aldrich, cat. N0636), 1X B-27 supplement (Thermo Fisher Scientific, cat. 17504044), 1X N-2 supplement (Thermo Fisher Scientific, cat. 17502048), 50 ng/mL human EGF (Thermo Fisher Scientific, cat. PHG0311), and 10 microM Y-27632 dihydrochloride (Tocris Bioscience, cat. 1254). The K12877-001-R-J1-PDC line was cultured in 6I media, which includes all 6C/Colon 1B media plus 10 ng/mL human FGF-10 (PeproTech, cat. 100-26), 1 ng/mL human FGF-2 (PeproTech, cat. 100-18B), 1 µM prostaglandin E2 (Tocris Bioscience, cat. 2296), […] hydrocortisone (Sigma-Aldrich, cat. H4001), and […] bovine insulin (Sigma-Aldrich, cat. I6634). The K86415-001-R-J1-PDC line was cultured in 6D media, which includes all 6C/Colon 1B media components minus the L-WRN conditioned media. The 485176-168-R4-J1-PDC was cultured in PANC media, which includes all 6C/Colon 1B media plus 100 ng/mL human FGF-10 (PeproTech, cat. 100-26), 500 nM SB-431542 (Selleckchem, cat. S1067), and 10 nM gastrin (Tocris Bioscience, cat. 3006). […]

[1] = second compound 0.0316 µM, first compound 0.0316 µM
[2] = second compound 0.0316 µM, first compound 0.1 µM
[3] = second compound 0.0316 µM, first compound 0.316 µM
[4] = second compound 0.0316 µM, first compound 1 µM
[5] = second compound 0.0316 µM, first compound 3.16 µM
[6] = second compound 0.0316 µM, first compound 10 µM
[7] = second compound 0.1 µM, first compound 0.0316 µM
[8] = second compound 0.1 µM, first compound 0.1 µM
[9] = second compound 0.1 µM, first compound 0.316 µM
[10] = second compound 0.1 µM, first compound 1 µM
[11] = second compound 0.1 µM, first compound 3.16 µM
[12] = second compound 0.1 µM, first compound 10 µM
[13] = second compound 0.316 µM, first compound 0.0316 µM
[14] = second compound 0.316 µM, first compound 0.1 µM
[15] = second compound 0.316 µM, first compound 0.316 µM
[16] = second compound 0.316 µM, first compound 1 µM
[17] = second compound 0.316 µM, first compound 3.16 µM
[18] = second compound 0.316 µM, first compound 10 µM
[19] = second compound 1 µM, first compound 0.0316 µM
[20] = second compound 1 µM, first compound 0.1 µM
[21] = second compound 1 µM, first compound 0.316 µM
[22] = second compound 1 µM, first compound 1 µM
[23] = second compound 1 µM, first compound 3.16 µM
[24] = second compound 1 µM, first compound 10 µM
[25] = second compound 3.16 µM, first compound 0.0316 µM
[26] = second compound 3.16 µM, first compound 0.1 µM
[27] = second compound 3.16 µM, first compound 0.316 µM
[28] = second compound 3.16 µM, first compound 1 µM
[29] = second compound 3.16 µM, first compound 3.16 µM
[30] = second compound 3.16 µM, first compound 10 µM
[31] = second compound 10 µM, first compound 0.0316 µM
[32] = second compound 10 µM, first compound 0.1 µM
[33] = second compound 10 µM, first compound 0.316 µM
[34] = second compound 10 µM, first compound 1 µM
[35] = second compound 10 µM, first compound 3.16 µM
[36] = second compound 10 µM, first compound 10 µM
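Note: spheroids exposed to compound for 7 days before readout.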
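Throughout, for viability, T/C: 100% = DMSO vehicle control luminescence.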

For `CC1(O)CCCC1n1c(=O)c(C(F)F)cc2cnc(NC3CCN(S(C)(=O)=O)CC3)nc21` (stereo unspecified) + C#Cc1c(F)ccc2cc(O)cc(-c3ncc4c(N5CC6CCC(C5)N6)nc(OCC56CCCN5CC(F)C6)nc4c3F)c12, the IC50 (second compound 0.0316 µM) was > 10000 nM, the IC50 (second compound 0.1 µM) was > 10000 nM and the IC50 (second compound 0.316 µM) was > 10000 nM. The IC50 (second compound 1 µM) was 9420 nM, the IC50 (second compound 3.16 µM) was 8920 nM and the IC50 (second compound 10 µM) was 5280 nM. It also gave a viability, T/C [1] of 99.9%, a viability, T/C [2] of 101% and a viability, T/C [3] of 97.3%. It also gave a viability, T/C [4] of 108%, a viability, T/C [5] of 111% and a viability, T/C [6] of 76.7%. It also gave a viability, T/C [7] of 108%, a viability, T/C [8] of 103% and a viability, T/C [9] of 99.4%. It also gave a viability, T/C [10] of 97.3%, a viability, T/C [11] of 104% and a viability, T/C [12] of 77.2%. It also gave a viability, T/C [13] of 98.5%, a viability, T/C [14] of 108% and a viability, T/C [15] of 89.4%. The viability, T/C [16] was 107%, the viability, T/C [17] was 112% and the viability, T/C [18] was 62.4%. For the same compound, the viability, T/C [19] was 92.5%, the viability, T/C [20] was 99.1% and the viability, T/C [21] was 77.4%. It also gave a viability, T/C [22] of 94.8%, a viability, T/C [23] of 97.4% and a viability, T/C [24] of 47.6%. For the same compound, the viability, T/C [25] was 86.2%, the viability, T/C [26] was 78.6% and the viability, T/C [27] was 78.9%. The viability, T/C [28] was 82.1%, the viability, T/C [29] was 87.9% and the viability, T/C [30] was 46.6%. It also gave a viability, T/C [31] of 69.8%, a viability, T/C [32] of 72.6% and a viability, T/C [33] of 74.8%. It also gave a viability, T/C [34] of 76.2%, a viability, T/C [35] of 56.3% and a viability, T/C [36] of 42.1%.

`CCC(CC)c1cc(NC2CCC(N)C2)n2nccc2n1` (stereo unspecified) + C#Cc1c(F)ccc2cc(O)cc(-c3ncc4c(N5CC6CCC(C5)N6)nc(OCC56CCCN5CC(F)C6)nc4c3F)c12 showed an IC50 (second compound 0.0316 µM) of 3290 nM, an IC50 (second compound 0.1 µM) of 2310 nM and an IC50 (second compound 0.316 µM) of 2580 nM. It also gave an IC50 (second compound 1 µM) of 2490 nM, an IC50 (second compound 3.16 µM) of 1930 nM and an IC50 (second compound 10 µM) of 1320 nM. It also gave a viability, T/C [1] of 98.2%, a viability, T/C [2] of 97.2% and a viability, T/C [3] of 109%. The viability, T/C [4] was 101%, the viability, T/C [5] was 50.7% and the viability, T/C [6] was 32.1%. For the same compound, the viability, T/C [7] was 98.2%, the viability, T/C [8] was 99.1% and the viability, T/C [9] was 102%. It also gave a viability, T/C [10] of 94.7%, a viability, T/C [11] of 33.4% and a viability, T/C [12] of 30.8%. For the same compound, the viability, T/C [13] was 102%, the viability, T/C [14] was 98% and the viability, T/C [15] was 83.1%. The viability, T/C [16] was 96.7%, the viability, T/C [17] was 40.3% and the viability, T/C [18] was 27.3%. For the same compound, the viability, T/C [19] was 82.5%, the viability, T/C [20] was 83.3% and the viability, T/C [21] was 68.8%. For the same compound, the viability, T/C [22] was 86.8%, the viability, T/C [23] was 42% and the viability, T/C [24] was 24.2%. For the same compound, the viability, T/C [25] was 73.9%, the viability, T/C [26] was 69.7% and the viability, T/C [27] was 66.3%. It also gave a viability, T/C [28] of 78.8%, a viability, T/C [29] of 33.2% and a viability, T/C [30] of 20.8%. The viability, T/C [31] was 64.1%, the viability, T/C [32] was 65.6% and the viability, T/C [33] was 66.4%. It also gave a viability, T/C [34] of 60.4%, a viability, T/C [35] of 16.9% and a viability, T/C [36] of 15.5%.

With `CCN1CCN(Cc2ccc(Nc3ncc(F)c(-c4cc(F)c5nc(C)n(C(C)C)c5c4)n3)nc2)CC1` + C#Cc1c(F)ccc2cc(O)cc(-c3ncc4c(N5CC6CCC(C5)N6)nc(OCC56CCCN5CC(F)C6)nc4c3F)c12 the IC50 (second compound 0.0316 µM) was > 1000 nM, the IC50 (second compound 0.1 µM) was > 1000 nM and the IC50 (second compound 0.316 µM) was > 1000 nM. For the same compound, the IC50 (second compound 1 µM) was > 1000 nM, the IC50 (second compound 3.16 µM) was > 1000 nM and the IC50 (second compound 10 µM) was 208 nM. The viability, T/C (second compound 0.0316 µM, first compound 0.00316 µM) was 106%, the viability, T/C (second compound 0.0316 µM, first compound 0.01 µM) was 106% and the viability, T/C [1] was 106%. It also gave a viability, T/C [2] of 103%, a viability, T/C [3] of 92.3% and a viability, T/C [4] of 103%. It also gave a viability, T/C (second compound 0.1 µM, first compound 0.00316 µM) of 110%, a viability, T/C (second compound 0.1 µM, first compound 0.01 µM) of 100% and a viability, T/C [7] of 94.8%. The viability, T/C [8] was 89.2%, the viability, T/C [9] was 91.6% and the viability, T/C [10] was 99.5%. For the same compound, the viability, T/C (second compound 0.316 µM, first compound 0.00316 µM) was 100%, the viability, T/C (second compound 0.316 µM, first compound 0.01 µM) was 99.2% and the viability, T/C [13] was 81.1%. It also gave a viability, T/C [14] of 88%, a viability, T/C [15] of 93.3% and a viability, T/C [16] of 77.4%. The viability, T/C (second compound 1 µM, first compound 0.00316 µM) was 92.5%, the viability, T/C (second compound 1 µM, first compound 0.01 µM) was 96.3% and the viability, T/C [19] was 73.2%. For the same compound, the viability, T/C [20] was 82.5%, the viability, T/C [21] was 85.6% and the viability, T/C [22] was 61.6%. It also gave a viability, T/C (second compound 3.16 µM, first compound 0.00316 µM) of 78.3%, a viability, T/C (second compound 3.16 µM, first compound 0.01 µM) of 73.9% and a viability, T/C [25] of 76.3%. The viability, T/C [26] was 74.3%, the viability, T/C [27] was 71% and the viability, T/C [28] was 54.9%. For the same compound, the viability, T/C (second compound 10 µM, first compound 0.00316 µM) was 76.8%, the viability, T/C (second compound 10 µM, first compound 0.01 µM) was 67.8% and the viability, T/C [31] was 72.7%. The viability, T/C [32] was 57.7%, the viability, T/C [33] was 45.5% and the viability, T/C [34] was 37.4%.
